ChEMBL document CHEMBL5335860, “Imidazole Bioisostere Activators of Endopeptidase Neurolysin with Enhanced Potency and Metabolic Stability” (ACS Med Chem Lett, 2024)
Active and inactive are the calls of the source. The calls are words filed in the database; no cut-off is given here. Peptide text beside a SMILES is read from it. * marks the point of attachment. NHPhenethyl = c1ccc(CCN*)cc1

Columns and labels:
[1] = target: T1, Neurolysin, mitochondrial (Homo sapiens, UniProt Q9BYT8); assay: Activation of Nln (unknown origin) using Mca-Pro-Leu-Gly-Pro-D-Lys(DNP)- OH as substrate preincubated for 10 mins followed by substrate addition measured for 20 mins by fluorescence based assay
Target sequence in this assay (Q9BYT8 whole entry): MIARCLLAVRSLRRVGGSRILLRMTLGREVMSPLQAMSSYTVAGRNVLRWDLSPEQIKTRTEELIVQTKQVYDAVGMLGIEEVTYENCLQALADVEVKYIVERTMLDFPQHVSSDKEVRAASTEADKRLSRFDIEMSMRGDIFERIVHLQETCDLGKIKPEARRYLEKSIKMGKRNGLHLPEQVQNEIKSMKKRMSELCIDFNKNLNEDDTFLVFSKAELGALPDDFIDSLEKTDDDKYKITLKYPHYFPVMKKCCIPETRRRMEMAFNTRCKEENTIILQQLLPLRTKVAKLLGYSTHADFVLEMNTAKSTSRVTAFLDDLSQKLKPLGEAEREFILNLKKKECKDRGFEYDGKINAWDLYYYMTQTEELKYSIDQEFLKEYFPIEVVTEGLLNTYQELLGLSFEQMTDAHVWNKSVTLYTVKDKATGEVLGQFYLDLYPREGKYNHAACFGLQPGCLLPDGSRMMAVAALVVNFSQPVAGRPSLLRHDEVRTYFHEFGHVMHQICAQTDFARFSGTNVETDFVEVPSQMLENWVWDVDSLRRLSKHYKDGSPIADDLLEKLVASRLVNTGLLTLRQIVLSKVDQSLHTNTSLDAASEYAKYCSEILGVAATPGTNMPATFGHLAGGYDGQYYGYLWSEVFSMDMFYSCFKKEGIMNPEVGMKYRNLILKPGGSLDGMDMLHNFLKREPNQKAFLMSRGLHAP

[2] = target: T1, Neurolysin, mitochondrial; assay: Activation of Nln (unknown origin) using Mca-Pro-Leu-Gly-Pro-D-Lys(DNP)- OH as substrate preincubated for 10 mins followed by substrate addition measured for 20 mins by fluorescence based assay relative to control; settings: filed as activator, time 30.0 min
Target sequence in this assay (Q9BYT8 38-704 limits assumed): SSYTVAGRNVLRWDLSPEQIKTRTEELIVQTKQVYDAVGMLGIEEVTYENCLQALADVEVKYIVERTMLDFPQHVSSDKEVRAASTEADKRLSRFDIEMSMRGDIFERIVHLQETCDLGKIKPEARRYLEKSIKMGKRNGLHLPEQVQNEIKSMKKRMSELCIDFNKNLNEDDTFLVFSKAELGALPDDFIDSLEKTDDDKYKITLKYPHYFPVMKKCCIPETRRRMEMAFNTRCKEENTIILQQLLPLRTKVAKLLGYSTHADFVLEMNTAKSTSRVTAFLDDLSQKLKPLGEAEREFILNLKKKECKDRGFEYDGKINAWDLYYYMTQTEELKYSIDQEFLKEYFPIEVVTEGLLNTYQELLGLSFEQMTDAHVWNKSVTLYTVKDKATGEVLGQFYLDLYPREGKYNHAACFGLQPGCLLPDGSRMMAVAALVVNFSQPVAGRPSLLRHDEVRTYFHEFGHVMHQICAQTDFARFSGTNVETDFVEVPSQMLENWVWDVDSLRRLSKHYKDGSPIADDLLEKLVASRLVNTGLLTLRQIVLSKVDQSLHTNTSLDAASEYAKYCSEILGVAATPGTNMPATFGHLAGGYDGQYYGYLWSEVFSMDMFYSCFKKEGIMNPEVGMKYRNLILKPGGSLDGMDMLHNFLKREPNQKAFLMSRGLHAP

[3] = Half life in mouse plasma at 500 ng/ml measured for 4 hrs by LC-MS/MS analysis; format: ADME, cell-free
[4] = Half life in mouse brain at 500 ng/ml measured for 4 hrs by LC-MS/MS analysis; format: ADME, tissue-based
[5] = Permeability coefficient in co-culture of primary mouse astrocytes and immortalized mouse endothelial cells at 10 ug/ml by BBB assay; format: ADME; settings: dose 10 µg/ml, read-out: Kp (converted)
[6] = target: Angiotensin-converting enzyme (Homo sapiens) (UniProt P12821); assay: Inhibition of C-terminal 10-His-tagged recombinant human ACE (30 to 1261 residues) expressed in mouse myeloma cells; settings: Multiple myeloma cell
[7] = target: Neprilysin (Homo sapiens) (UniProt P08473); assay: Inhibition of N-terminal polyhis-tagged recombinant human neprilysin (52 to 750 residues) expressed in HEK293 cells; format: cell-based
[8] = target: Angiotensin-converting enzyme 2 (Homo sapiens) (UniProt Q9BYF1); assay: Inhibition of C-terminal polyhis-tagged recombinant human ACE2 (1 to 740 residues) expressed in HEK293 cells; format: cell-based
[9] = target: Thimet oligopeptidase (Homo sapiens) (UniProt P52888); assay: Inhibition of recombinant THOP1 (unknown origin)
[10] = target: Thimet oligopeptidase (Homo sapiens) (UniProt P52888); assay: Inhibition of recombinant THOP1 (unknown origin) relative to control; settings: concentration not given here
[11] = target: Angiotensin-converting enzyme 2 (Homo sapiens) (UniProt Q9BYF1); assay: Inhibition of C-terminal polyhis-tagged recombinant human ACE2 (1 to 740 residues) expressed in HEK293 cells relative to control; format: cell-based; settings: concentration not given here
[12] = target: Neprilysin (Homo sapiens) (UniProt P08473); assay: Inhibition of N-terminal polyhis-tagged recombinant human neprilysin (52 to 750 residues) expressed in HEK293 cells relative to control; format: cell-based; settings: concentration not given here
[13] = target: Angiotensin-converting enzyme (Homo sapiens) (UniProt P12821); assay: Inhibition of C-terminal 10-His-tagged recombinant human ACE (30 to 1261 residues) expressed in mouse myeloma cells relative to control; settings: concentration not given here
[14] = Elimination half life in MCAO mouse model at 4 mg/kg, iv; format: ADME, organism-based; settings: in vivo, read-out: beta t1/2
[15] = Drug concentration in brain of MCAO mouse model at 4 mg/kg, iv measured after 30 mins; format: ADME, organism-based; settings: read-out: Ct

Thimet oligopeptidase (Homo sapiens), sequence (P52888 whole entry, the tested form may be a part): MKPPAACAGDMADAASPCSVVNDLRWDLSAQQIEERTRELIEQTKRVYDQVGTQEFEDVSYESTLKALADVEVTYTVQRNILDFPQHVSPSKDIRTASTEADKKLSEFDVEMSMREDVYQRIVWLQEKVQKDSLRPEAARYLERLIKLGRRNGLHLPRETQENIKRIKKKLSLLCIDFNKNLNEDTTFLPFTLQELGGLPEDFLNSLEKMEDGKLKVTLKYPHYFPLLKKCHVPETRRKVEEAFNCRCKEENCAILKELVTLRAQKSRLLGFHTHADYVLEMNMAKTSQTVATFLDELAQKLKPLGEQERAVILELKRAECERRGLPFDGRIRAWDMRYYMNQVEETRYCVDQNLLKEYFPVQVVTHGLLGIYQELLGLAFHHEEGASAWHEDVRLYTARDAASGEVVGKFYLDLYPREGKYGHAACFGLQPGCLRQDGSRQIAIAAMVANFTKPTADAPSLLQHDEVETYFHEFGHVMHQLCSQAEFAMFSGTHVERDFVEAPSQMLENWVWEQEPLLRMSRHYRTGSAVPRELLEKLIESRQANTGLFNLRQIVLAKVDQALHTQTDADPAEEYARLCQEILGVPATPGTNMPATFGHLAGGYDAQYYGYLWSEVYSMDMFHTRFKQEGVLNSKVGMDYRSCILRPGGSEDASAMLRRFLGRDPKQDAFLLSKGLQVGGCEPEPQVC
Neprilysin (Homo sapiens), sequence (P08473 whole entry, the tested form may be a part): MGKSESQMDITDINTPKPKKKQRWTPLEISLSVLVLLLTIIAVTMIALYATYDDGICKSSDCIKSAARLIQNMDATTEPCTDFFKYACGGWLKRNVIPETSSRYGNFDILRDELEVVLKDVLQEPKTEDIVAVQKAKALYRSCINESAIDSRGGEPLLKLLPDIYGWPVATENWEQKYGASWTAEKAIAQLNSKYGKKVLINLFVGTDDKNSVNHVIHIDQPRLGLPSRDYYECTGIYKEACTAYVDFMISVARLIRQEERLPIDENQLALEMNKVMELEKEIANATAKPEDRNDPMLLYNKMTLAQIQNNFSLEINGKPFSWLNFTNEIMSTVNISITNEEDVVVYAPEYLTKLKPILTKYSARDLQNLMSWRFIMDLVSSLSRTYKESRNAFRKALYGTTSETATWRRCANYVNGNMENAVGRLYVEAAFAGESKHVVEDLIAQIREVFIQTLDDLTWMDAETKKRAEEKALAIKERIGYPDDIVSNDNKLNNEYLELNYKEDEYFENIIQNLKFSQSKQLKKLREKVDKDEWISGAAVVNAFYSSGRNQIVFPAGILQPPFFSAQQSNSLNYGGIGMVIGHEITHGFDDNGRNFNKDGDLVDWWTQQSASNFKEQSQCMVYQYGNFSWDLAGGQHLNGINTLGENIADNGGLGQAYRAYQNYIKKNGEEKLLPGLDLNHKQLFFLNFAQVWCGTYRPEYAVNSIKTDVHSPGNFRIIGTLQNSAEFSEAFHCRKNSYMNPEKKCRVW
Angiotensin-converting enzyme (Homo sapiens), sequence (P12821 whole entry, the tested form may be a part): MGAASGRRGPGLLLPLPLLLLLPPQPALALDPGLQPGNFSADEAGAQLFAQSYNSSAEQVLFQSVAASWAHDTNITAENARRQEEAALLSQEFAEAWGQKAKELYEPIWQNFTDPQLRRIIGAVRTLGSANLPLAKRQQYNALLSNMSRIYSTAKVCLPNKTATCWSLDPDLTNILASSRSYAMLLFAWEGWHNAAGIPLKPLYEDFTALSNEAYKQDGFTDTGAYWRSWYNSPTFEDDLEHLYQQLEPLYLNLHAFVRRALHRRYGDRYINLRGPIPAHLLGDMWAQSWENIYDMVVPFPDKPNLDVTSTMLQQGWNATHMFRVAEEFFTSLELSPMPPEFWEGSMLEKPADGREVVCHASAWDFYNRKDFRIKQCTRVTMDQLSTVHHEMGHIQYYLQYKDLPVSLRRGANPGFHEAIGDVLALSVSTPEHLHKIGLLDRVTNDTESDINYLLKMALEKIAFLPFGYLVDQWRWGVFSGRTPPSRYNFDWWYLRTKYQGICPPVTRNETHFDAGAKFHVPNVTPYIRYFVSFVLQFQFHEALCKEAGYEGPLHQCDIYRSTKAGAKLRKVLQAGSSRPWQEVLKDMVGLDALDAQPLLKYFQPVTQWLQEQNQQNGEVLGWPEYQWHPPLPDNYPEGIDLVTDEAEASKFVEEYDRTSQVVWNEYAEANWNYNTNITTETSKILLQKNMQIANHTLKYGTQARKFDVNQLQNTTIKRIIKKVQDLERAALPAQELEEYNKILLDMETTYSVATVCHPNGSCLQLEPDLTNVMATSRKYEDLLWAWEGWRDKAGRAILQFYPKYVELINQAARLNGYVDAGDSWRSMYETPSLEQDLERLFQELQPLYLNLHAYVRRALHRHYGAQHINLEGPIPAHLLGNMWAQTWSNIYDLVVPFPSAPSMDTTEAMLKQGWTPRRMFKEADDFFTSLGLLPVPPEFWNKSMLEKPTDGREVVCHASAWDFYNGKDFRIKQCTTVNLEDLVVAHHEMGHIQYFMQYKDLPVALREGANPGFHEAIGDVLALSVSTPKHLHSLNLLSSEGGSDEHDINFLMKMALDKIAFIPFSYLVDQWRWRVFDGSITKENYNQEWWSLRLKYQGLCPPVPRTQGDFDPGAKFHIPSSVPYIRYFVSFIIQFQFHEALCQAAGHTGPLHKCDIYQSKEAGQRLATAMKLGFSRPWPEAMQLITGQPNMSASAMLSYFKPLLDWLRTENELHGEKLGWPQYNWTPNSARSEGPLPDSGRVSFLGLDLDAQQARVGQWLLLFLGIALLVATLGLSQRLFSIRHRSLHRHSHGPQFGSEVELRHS
Angiotensin-converting enzyme 2 (Homo sapiens), sequence (Q9BYF1 18-805 limits assumed): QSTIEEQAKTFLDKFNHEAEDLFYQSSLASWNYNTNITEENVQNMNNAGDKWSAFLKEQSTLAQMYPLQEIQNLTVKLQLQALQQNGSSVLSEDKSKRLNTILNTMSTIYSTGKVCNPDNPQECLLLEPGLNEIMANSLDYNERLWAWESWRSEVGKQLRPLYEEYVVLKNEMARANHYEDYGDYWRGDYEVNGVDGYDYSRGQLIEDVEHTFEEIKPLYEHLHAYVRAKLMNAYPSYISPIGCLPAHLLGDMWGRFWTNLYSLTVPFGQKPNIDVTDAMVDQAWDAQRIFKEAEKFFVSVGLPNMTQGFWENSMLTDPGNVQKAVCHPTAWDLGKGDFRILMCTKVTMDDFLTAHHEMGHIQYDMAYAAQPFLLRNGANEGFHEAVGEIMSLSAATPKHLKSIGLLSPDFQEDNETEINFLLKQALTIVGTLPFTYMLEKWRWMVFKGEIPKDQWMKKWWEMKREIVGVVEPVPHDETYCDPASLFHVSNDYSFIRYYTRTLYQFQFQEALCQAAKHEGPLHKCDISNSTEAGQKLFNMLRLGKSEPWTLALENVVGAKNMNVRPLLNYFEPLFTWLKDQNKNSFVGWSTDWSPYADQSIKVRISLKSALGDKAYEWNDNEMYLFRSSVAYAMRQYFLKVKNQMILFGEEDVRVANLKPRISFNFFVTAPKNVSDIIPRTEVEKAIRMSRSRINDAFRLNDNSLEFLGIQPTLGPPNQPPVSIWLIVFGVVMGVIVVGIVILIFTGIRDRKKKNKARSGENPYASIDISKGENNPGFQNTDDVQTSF

Row | SMILES | EC50 ([1]; read-out: EC50) [µM] | Emax [2] [%] | other results
1 | N[C@@H](Cc1c[nH]cn1)C(=O)NCCc1ccc(F)cc1 | 11.6 | – | –
2 | N[C@H](Cc1c[nH]cn1)c1ncc(-c2ccc(Cl)cc2)[nH]1 | 2 | 282 | half-life at 500 ng/ml [3]: 8.15 h; half-life at 500 ng/ml [4]: 1.81 h; Papp at 10 ug/ml [5]: 6 ×10⁻⁶ cm/s; inhibition [6]: inactive; inhibition [7]: inactive; inhibition [8]: inactive; inhibition [9]: inactive
3 | N[C@@H](Cc1c[nH]cn1)c1ncc(-c2cccc3ccccc23)[nH]1 | 4.1 | 244 | half-life at 500 ng/ml [3]: > 16.7 h; half-life at 500 ng/ml [4]: 1.77 h; Papp at 10 ug/ml [5]: 13.8 ×10⁻⁶ cm/s; inhibition [10]: 20%; inhibition [11]: 20%; inhibition [12]: 20%; inhibition [13]: 20%
4 | N[C@@H](Cc1c[nH]cn1)C(=O)Nc1ccccc1 | 252 | 467 | –
5 | N[C@@H](Cc1c[nH]cn1)C(=O)N1CCc2ccccc2C1 | 32.6 | 380 | –
6 | N[C@@H](Cc1c[nH]cn1)C(=O)NCCc1ccc(Cl)cc1 | 25 | 404 | –
7 | N[C@@H](Cc1c[nH]cn1)C(=O)N[C@@H](Cc1ccccc1)C(=O)NCc1cccc2ccccc12 | – | – | EC50 [1]: Not Active
8 | CC(C)[C@H](NC(=O)[C@@H](N)Cc1c[nH]cn1)C(=O)NCc1cccc2ccccc12 | – | – | EC50 [1]: Not Active
9 | N[C@H](Cc1c[nH]cn1)C(=O)N1CCC(Cc2ccccc2F)CC1 | 5.4 | 272 | –
10 | N[C@@H](Cc1c[nH]cn1)c1ncc(-c2ccc3ccccc3c2)[nH]1 | 5.5 | 268 | –
11 | N[C@@H](Cc1c[nH]cn1)c1ncc(-c2ccc(Cl)cc2)[nH]1 | 2.9 | 318 | –
12 | N[C@@H](Cc1c[nH]cn1)C(=O)Nc1cccc2cccnc12 | 7 | – | Papp at 10 ug/ml [5]: 19 ×10⁻⁶ cm/s; half-life [14]: 0.5 h; concentration at 0.5 h [15]: 260 nM
13 | N[C@@H](Cc1c[nH]cn1)C(=O)NCc1cccc2ccccc12 | – | 264 | half-life at 500 ng/ml [3]: > 16.7 h; half-life at 500 ng/ml [4]: 1.34 h; Papp at 10 ug/ml [5]: 18.3 ×10⁻⁶ cm/s
14 | N[C@@H](Cc1c[nH]cn1)C(=O)N1CCC(Cc2ccccc2F)CC1 | 4.3 | 237 | –
15 | N[C@@H](Cc1c[nH]cn1)C(=O)NCC(=O)c1ccc2ccccc2c1 | – | – | EC50 [1]: Not Active
16 | N[C@@H](Cc1c[nH]cn1)C(=O)NCC(=O)c1ccc(Cl)cc1 | 33.7 | 130 | –
17 | N[C@H](Cc1c[nH]cn1)c1ncc(-c2ccc3ccccc3c2)[nH]1 | 6.8 | 138 | –

Continued, in another order:

Row | EC50 ([1]; read-out: EC50) [µM] | Emax [2] [%] | SMILES | other results
18 | 3.4 | 279 | N[C@@H](Cc1c[nH]cn1)C(=S)NCc1cccc2ccccc12 | –
19 | 4.4 | 211 | N[C@@H](Cc1c[nH]cn1)C(=O)NCc1ccc2ccccc2c1 | –
20 | 3.8 | 345 | CN(Cc1cccc2ccccc12)C(=O)[C@@H](N)Cc1c[nH]cn1 | –
21 | 85.5 | – | N[C@@H](Cc1c[nH]cn1)C(=O)N[C@@H](Cc1ccccc1)C(=O)O (H-His-Phe-OH) | half-life at 500 ng/ml [3]: 0.57 h; Papp at 10 ug/ml [5]: 1.17 ×10⁻⁶ cm/s
22 | 5.2 | 307 | N[C@@H](Cc1c[nH]cn1)C(=O)N(CCc1c[nH]c2ccccc12)Cc1ccccc1 | –
23 | 5.4 | 178 | N[C@@H](Cc1c[nH]cn1)C(=O)N[C@@H](Cc1ccccc1)C(=O)NCCc1ccccc1 (H-His-Phe-NHPhenethyl) | –
24 | 3.6 | 324 | CN(Cc1cccc2ccccc12)C(=O)[C@H](N)Cc1c[nH]cn1 | –
